Patent US12077503B2, “Substituted cyclic amides and their use as herbicides” (FMC CORPORATION, priority 2015, dated 2024)

What was measured:
Type in all cases: in vivo
[1] = test system: barnyardgrass (Echinochloa crus-galli); experiment: Test A preemergence; conditions: Echinochloa crus-galli, pre-emergence, 240 h, 0 to 100 scale where 0 is no effect and 100 is complete control, read-out: Barnyardgrass plant response rating
Procedure, shortened: (§1)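 Preemergence soil spray on seeded pots or post-emergence spray on 1–2 leaf plants, in loam–sand blend. Greenhouse ~10 d. Visual rating 0–100 against untreated plants.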

[2] = test system: ryegrass, Italian (Italian ryegrass, Lolium multiflorum); experiment: Test A preemergence; conditions: Lolium multiflorum, pre-emergence, 240 h, 0 to 100 scale where 0 is no effect and 100 is complete control, read-out: Ryegrass, Italian plant response rating
Procedure, shortened: as §1

[3] = test system: ragweed (common ragweed, Ambrosia elatior); experiment: Test A preemergence; conditions: Ambrosia artemisiifolia, pre-emergence, 240 h, 0 to 100 scale where 0 is no effect and 100 is complete control, read-out: Ragweed plant response rating
Procedure, shortened: as §1

[4] = test system: giant foxtail (Setaria faberii); experiment: Test A preemergence; conditions: Setaria faberi, pre-emergence, 240 h, 0 to 100 scale where 0 is no effect and 100 is complete control, read-out: Foxtail, Giant plant response rating
Procedure, shortened: as §1

Kochia (Kochia scoparia) [5] = experiment: Test A preemergence; conditions: Bassia scoparia, pre-emergence, 240 h, 0 to 100 scale where 0 is no effect and 100 is complete control, read-out: Kochia plant response rating
Procedure, shortened: as §1

[6] = test system: pigweed (Amaranthus retroflexus); experiment: Test A preemergence; conditions: Amaranthus retroflexus, pre-emergence, 240 h, 0 to 100 scale where 0 is no effect and 100 is complete control, read-out: Pigweed plant response rating
[7] = test system: Galium (catchweed bedstraw, Galium aparine); experiment: Test A postemergence; conditions: Galium, post-emergence, 240 h, Postemergence, read-out: Galium plant response rating (0 to 100 scale)
Procedure, shortened: as §1

[8] = test system: wheat (Triticum aestivum); experiment: Test A postemergence; conditions: Triticum aestivum, post-emergence, 240 h, Postemergence, read-out: Wheat plant response rating (0 to 100 scale)
Procedure, shortened: as §1

[9] = test system: barnyardgrass (Echinochloa crus-galli); experiment: Test A postemergence; conditions: Echinochloa crus-galli, post-emergence, 240 h, Postemergence
Procedure, shortened: as §1

[10] = test system: blackgrass (Alopecurus myosuroides); experiment: Test A postemergence; conditions: Alopecurus myosuroides, post-emergence, 240 h, Postemergence, read-out: Blackgrass plant response rating (0 to 100 scale)
Procedure, shortened: as §1

[11] = test system: ryegrass, Italian (Italian ryegrass, Lolium multiflorum); experiment: Test A postemergence; conditions: Lolium multiflorum, post-emergence, 240 h, Postemergence, read-out: Ryegrass, Italian plant response rating (0 to 100 scale)
Procedure, shortened: as §1

[12] = test system: ragweed (common ragweed, Ambrosia elatior); experiment: Test A postemergence; conditions: Ambrosia artemisiifolia, post-emergence, 240 h, Postemergence, read-out: Ragweed plant response rating (0 to 100 scale)
Procedure, shortened: as §1

[13] = test system: giant foxtail (Setaria faberii); experiment: Test A postemergence; conditions: Setaria faberi, post-emergence, 240 h, Postemergence, read-out: Foxtail, Giant plant response rating (0 to 100 scale)
Procedure, shortened: as §1

Kochia (Kochia scoparia) [14] = experiment: Test A postemergence; conditions: Bassia scoparia, post-emergence, 240 h, Postemergence, read-out: Kochia plant response rating (0 to 100 scale)
Procedure, shortened: as §1

corn (Zea mays) = experiment: Test A postemergence; conditions: Zea mays, post-emergence, 240 h, Postemergence, read-out: Corn plant response rating (0 to 100 scale)
Procedure, shortened: as §1

[15] = test system: pigweed (Amaranthus retroflexus); experiment: Test A postemergence; conditions: Amaranthus retroflexus, post-emergence, 240 h, Postemergence, read-out: Pigweed plant response rating (0 to 100 scale)
Procedure, shortened: as §1

rice (Oryra sativa) = experiment: Test B flooded paddy test; conditions: Oryza sativa, 250 g ai/ha, Flood; 0 to 100 scale where 0 is no effect and 100 is complete control; read-out: Rice plant response rating
Procedure, shortened: (§2)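 Compound goes directly into floodwater once pots are flooded 3 cm above soil, targeting plants at two leaves; the water depth is then held for the test duration. Plants sit 13–15 d in a greenhouse and are rated visually, 100 denoting complete control.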

[16] = test system: barnyardgrass (Echinochloa crus-galli); experiment: Test B flooded paddy test; conditions: Echinochloa crus-galli, 250 g ai/ha, Flood; 0 to 100 scale where 0 is no effect and 100 is complete control; read-out: Barnyardgrass plant response rating
Procedure, shortened: as §2

[17] = test system: sedge, umbrella (small-flower umbrella sedge, Cyperus difformis); experiment: Test B flooded paddy test; conditions: Cyperus difformis, 250 g ai/ha, Flood; 0 to 100 scale where 0 is no effect and 100 is complete control; read-out: Sedge, Umbrella plant response rating
Procedure, shortened: as §2

[18] = test system: ducksalad (Heteranthera limosa); experiment: Test B flooded paddy test; conditions: Heteranthera limosa, 250 g ai/ha, Flood; 0 to 100 scale where 0 is no effect and 100 is complete control; read-out: Ducksalad plant response rating
Procedure, shortened: as §2

[19] = 125 g ai/ha, preemergence, visual injury rating, approximately 10 d
[20] = 125 g ai/ha, visual rating about 10 d after treatment
[21] = 31 g ai/ha, 0 is no effect, 100 is complete control

`CN1C[C@H](c2cc(Cl)cc(Cl)c2)[C@@H](C(=O)Nc2ccccc2F)C1=O` [Compound 1269] gave a pest or weed control at 31 g/ha ([1]; 31 g ai/ha, Preemergence) of 70%, a pest or weed control at 125 g/ha [1, 19] of 90% and a pest or weed control at 31 g/ha ([2]; 31 g ai/ha, Preemergence) of 0%. The pest or weed control at 125 g/ha [2, 19] was 30%, the pest or weed control at 31 g/ha ([3]; 31 g ai/ha, Preemergence) was 0% and the pest or weed control at 125 g/ha [3, 19] was 0%. It also gave a pest or weed control at 31 g/ha ([4]; 31 g ai/ha, Preemergence) of 90%, a pest or weed control at 125 g/ha [4, 19] of 90% and a pest or weed control at 31 g/ha (Kochia (Kochia scoparia) [5]; 31 g ai/ha, Preemergence) of 0%. It also gave a pest or weed control at 125 g/ha (Kochia (Kochia scoparia) [5]; [19]) of 50%, a pest or weed control at 31 g/ha ([6]; 31 g ai/ha, Preemergence) of 0% and a pest or weed control at 125 g/ha [6, 19] of 0%. For the same compound, the pest or weed control at 125 g/ha [7, 20] was 60%, the pest or weed control at 31 g/ha [7, 21] was 0% and the plant injury at 125 g/ha [8, 20] was 60%. For the same compound, the plant injury at 31 g/ha [8, 21] was 0%, the pest or weed control at 125 g/ha ([9]; 125 g ai/ha, visual rating about 10 d after treatment, read-out: Barnyardgrass plant response rating (0 to 100 scale, 0 no effect, 100 complete control)) was 90% and the pest or weed control at 31 g/ha ([9]; 31 g ai/ha, 0 is no effect, 100 is complete control, read-out: Barnyardgrass plant response rating (0 to 100 scale)) was 90%. The pest or weed control at 125 g/ha [10, 20] was 40%, the pest or weed control at 31 g/ha [10, 21] was 0% and the pest or weed control at 125 g/ha [11, 20] was 30%. The pest or weed control at 31 g/ha [11, 21] was 0%, the pest or weed control at 125 g/ha [12, 20] was 0% and the pest or weed control at 31 g/ha [12, 21] was 0%. For the same compound, the pest or weed control at 125 g/ha [13, 20] was 80%, the pest or weed control at 31 g/ha [13, 21] was 60% and the pest or weed control at 125 g/ha (Kochia (Kochia scoparia) [14]; [20]) was 40%. For the same compound, the pest or weed control at 31 g/ha (Kochia (Kochia scoparia) [14]; [21]) was 0%, the plant injury at 125 g/ha (corn (Zea mays); [20]) was 80% and the plant injury at 31 g/ha (corn (Zea mays); [21]) was 0%. It also gave a pest or weed control at 125 g/ha [15, 20] of 30%, a pest or weed control at 31 g/ha [15, 21] of 0% and a pest or weed control at 250 g/ha (rice (Oryra sativa)) of 0%. The pest or weed control at 250 g/ha [16] was 60%, the pest or weed control at 250 g/ha [17] was 0% and the pest or weed control at 250 g/ha [18] was 90%.
